Patent US11612606B2, “8-aminoisoquinoline compounds and uses thereof” (priority 2018, dated 2023)
Read-outs that look alike come from different tables or passages of the source.

Key:
[1] = molecular target: HPK full length, T165E S171E (Homo sapiens (Human), UniProt Q92918, S171E/T165E); test: HPK1-FL HTRF enzymatic assay ("HTRF"); format: biochemical; conditions: ATP 1 mM
How it was run: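 HTRF detection of phosphorylated biotin-SLP-76 used Eu-anti-pSLP76 antibody and SA-XL665, read after 60 min. The kinase reaction ran 60 min at […], following a 30-min compound preincubation with the full-length enzyme.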

[2] = system: primary human pan T cells; test: Human T-cell IL2 induction assay; format: cell-based
Experimental: Assay Principle: Anti-CD3 and anti-CD28 activates TCR signaling in primary human pan T cells leading to IL-2 promoter induction. Secreted IL-2 in cell culture supernatant is detected by electrochemiluminescence using a capture antibody against IL-2 and an anti-IL-2 antibody labeled with SULFO-tag. Also see www.mesoscale.com for additional electrochemiluminescence technology information.
Assay Procedure: Incubate primary human pan T cells with varying concentrations of test compounds for 30 minutes in a humidified incubator at 37° C. and 5% CO2. Transfer cells to a plate pre-coated with a fixed concentration of anti-human CD3 (determined separately for each donor lot) and add soluble anti-human CD28 (final concentration=1 μg/ml). Stimulate cells in a humidified incubator at 37° C. and 5% CO2 for 4 hours. Transfer 25 μl of supernatant to a MSD single spot plate pre-coated with an anti-human IL-2 antibody. Incubate MSD plate overnight at 4° C. with gentle shaking. Wash MSD plate 4× with wash buffer. Add SULFO-tagged detection antibody at a 1:50 dilution and incubate at room temperature shaking for 2 hours. Wash MSD plate 4× with wash buffer and add 150 μl 2×MSD read buffer. Read on an MSD instrument. Normalize data to stimulated/untreated controls to calculate % activity at each concentration of compound.
Instrumentation: • Biomek FX for liquid handling (Beckman Coulter) • MSD SECTOR S 600 (Meso Scale Discovery)
Exemplary compounds of Formula (I) were tested in the human T-cell IL-2 induction assays.

[3] = system: phosphorylation of SLP-76 (S376) by HPK-1 in human Jurkat cells; test: pSLP76 assay (sandwich ELISA, anti-CD3 stimulated Jurkat cells); format: cell-based; conditions: Homo sapiens, read-out: pSLP76 IC50
Experimental: Phospho-SLP76 (S376) is detected by sandwich ELISA using an anti-pSLP76(S376) capture antibody and a biotinylated anti-SLP76 detection antibody.
Incubate Jurkat cells with varying concentrations of test compounds for 30 minutes in a humidified incubator at 37° C. and 5% CO2. Add anti-CD3 DynaBeads at a 4:1 bead:cell ratio. Stimulate cells in a humidified incubator at 37° C. and 5% CO2 for 10 minutes. Add cold lysis buffer and incubate on a shaker at 4° C. for 30 minutes. Transfer cell lysates to a pre-blocked ELISA plate coated with capture antibody. Incubate at room temperature shaking for 2 hours. Wash ELISA plate 5× with wash buffer and add 25 μl of biotinylated detection antibody at a final concentration of 0.5 μg/ml. Incubate at room temperature shaking for 1 hour. Wash ELISA plate 5× with wash buffer and add 25 μl of streptavidin enzyme conjugate at a final dilution of 1:8000. Incubate at room temperature shaking for 20 minutes. Wash ELISA plate 5× with wash buffer and add 25 μl of TMB substrate solution. Incubate at room temperature in the dark shaking for 20 minutes. Add 25 μl of STOP solution and read on SoftMax Pro for absorbance at 450 nm.
Exemplary compounds of Formula (I) were tested in pSLP76 assays.

[4] = Permeability assay in gMDCKI cells; format: in vitro ADME, canine; conditions: dog, MDCK, apical-to-basolateral, 2-hour incubation, read-out: MDCK AB Papp
Experimental: Cell permeability of compounds of interest was assessed in the gMDCKI cell line, which is a modified MDCKI (Madin-Darby canine kidney) originally acquired from American Type Culture Collection (Manassa, Va.) and generated at Genentech. […] Test article was tested at 10 μM in the apical-to-basolateral (A-B) and basolateral-to-apical (B-A) directions. Test compound was dissolved in transport buffer consisting of Hank's balanced salt solution and […] (Invitrogen Corporation, Grand Island, N.Y.). Transepithelial electrical resistance (TEER) and lucifer yellow (LY) permeability were used to monitor monolayer integrity at the beginning and the end of the experiments, respectively. Test articles were analyzed by LC-MS/MS.
The efflux ratio (ER) is calculated as (Papp, B−A/Papp, A−B).
Cell permeability were assessed for exemplary compounds of Formula (I).

[5] = Hepatocyte stability assay; format: in vitro ADME; conditions: cryopreserved human hepatocytes (10 donor pool, suspension), scaled hepatic clearance, read-out: HHep Clearance
Experimental: Metabolic stability of compounds are assessed using a hepatocyte stability assay. Cryopreserved human hepatocytes from a 10 donor pool are quickly thawed at 37° C., suspended in prewarmed In VitroGRO™ HT Medium, and then centrifuged at 100×g at room temperature for 10 min. The supernatants are discarded, and cells are resuspended in 5 mL Dulbecco's Modified Eagle Medium (DMEM) medium. Cell viability in suspension is counted on a Hepatometer® Vision (Lonza, N.C.), and viable cells are then adjusted to […] in DMEM. Compounds are first diluted to 2 μM with DMEM medium, and then aliquots of 125 μL of drug-containing medium are transferred to 96-well non-coated plates. Incubation is initiated by the addition of 125 μL of hepatocyte suspension to yield a total incubation volume of 250 μL. Final concentration of each compound is 1 μM, and final cell density is 0.5×10^6 cells/mL. Incubations are conducted in a humidified incubator at 37° C. Aliquots of 50 μL incubation medium are taken out at different time intervals (0, 60, 120 and 180 min), and immediately mixed with 100 μL of ice-cold acetonitrile containing 50 nM propranolol (internal standard). Samples are then centrifuged at 10,000×g for 10 min, and 80 μL of supernatant is taken out and diluted with 160 μL of water prior to LC/MS-MS analysis.
Human hepatocyte stability was assessed for exemplary compounds of Formula (I) according to the above procedures.

[6] = Pharmacokinetic study in rat; format: in vivo, Sprague Dawley rat; conditions: male, Sprague Dawley, plasma
Experimental: Pharmacokinetic Study in Rat: Male Sprague Dawley rats obtained from Lingchang/Vital River Laboratory Animal Technology Co., Ltd., (Shanghai/Beijing, P.R. China) with body weight ranging between 200 g to 300 g were use in the PK studies. Group of 3 rats were given a 1 mg/kg intravenous bolus (IV) dose of the test article in solution formulation, and another group of 3 rats were given a 2 or 5 mg/kg oral (PO) dose of test article as a 0.5% methylcellulose with 0.2% Tween 80 (MCT) suspension or as a solution. Blood samples (250 μL, per time point) were collected serially via the catheter in femoral artery at 0.033, 0.083, 0.25, 0.5, 1, 2, 4, 6, and 8 hours after IV or PO administration from each of the rat. Blood samples were collected into pre-chilled tubes containing Potassium (K2) EDTA and centrifuged at 3,200 g for 10 minutes at 2 to 8° C. within 1 hour of collection to harvest plasma. Plasma samples were stored at −70° C. until LC/MS/MS analysis. Concentration in each plasma sample was determined by a non-validated LC/MS/MS. Data is acquired using multiple reaction monitoring (MRM) with specific transitions monitored for each compound.
Following PO administration, percent bioavailability (% F) was determined for each animal by dividing the dose normalized area under the plasma concentration-time curve, extrapolated to infinity (AUCinf) obtained following each PO dose by the mean dose normalized AUCinf of the animals dosed by IV injection. All PK parameters are presented as mean±standard deviation (SD).
Pharmacokinetic studies were conducted in rat for exemplary compounds of Formula (I).

[7] = Jurkat cells, anti-CD3 stimulation
[8] = PO 2 mg/kg, 10% DMSO/60% PEG400/30% Water, Solution

HPK full length, T165E S171E, sequence (Q92918 whole entry T165E/S171E, looked up): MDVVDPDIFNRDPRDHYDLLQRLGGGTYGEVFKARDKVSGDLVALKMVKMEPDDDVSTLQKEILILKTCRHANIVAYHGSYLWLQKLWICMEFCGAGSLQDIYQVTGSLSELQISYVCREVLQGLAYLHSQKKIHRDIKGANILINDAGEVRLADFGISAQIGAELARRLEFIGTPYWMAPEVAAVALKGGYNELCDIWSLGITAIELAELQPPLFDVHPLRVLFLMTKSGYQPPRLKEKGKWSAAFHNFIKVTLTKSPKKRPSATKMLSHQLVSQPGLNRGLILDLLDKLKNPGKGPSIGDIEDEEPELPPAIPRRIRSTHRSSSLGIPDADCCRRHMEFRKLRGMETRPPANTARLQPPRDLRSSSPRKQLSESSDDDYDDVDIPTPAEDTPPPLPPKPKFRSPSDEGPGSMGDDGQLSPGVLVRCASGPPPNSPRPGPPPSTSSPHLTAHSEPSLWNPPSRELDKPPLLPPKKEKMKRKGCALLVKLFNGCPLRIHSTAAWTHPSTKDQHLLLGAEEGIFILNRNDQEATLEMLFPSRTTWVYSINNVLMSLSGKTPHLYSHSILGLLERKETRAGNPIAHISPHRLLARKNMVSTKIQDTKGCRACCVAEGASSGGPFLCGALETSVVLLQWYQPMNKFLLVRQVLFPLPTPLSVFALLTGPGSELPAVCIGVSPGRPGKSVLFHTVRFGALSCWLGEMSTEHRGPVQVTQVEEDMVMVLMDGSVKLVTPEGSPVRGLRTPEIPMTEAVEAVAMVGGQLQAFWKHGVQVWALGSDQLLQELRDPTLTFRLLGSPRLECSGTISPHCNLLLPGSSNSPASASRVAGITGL

In the case of `Cc1c(-c2cc3cc(NC(=O)O[C@H]4COC[C@@H]4C)ncc3c(N)c2F)cnc2c1NCCO2` (single isomer, unassigned) [Compound 441b], the Ki ([1]; read-out: HPK1 Ki) is reported as less than 0.013 nM, the “% IL-2 increase relative to untreated cells” value ([2]; assayed concentration 2.778 μM) is reported as 1158% and the IC50 [3, 7] is reported as 36 nM. It also gave a Papp at 2 h, 10 μM [4] of 15 ×10⁻⁶ cm/s, a CLhep predicted at 1 μM [5] of 6.9 mL/min/kg and a bioavailability ([6]; PO 2 mg/kg, 10/90 DMSO/MCT, Solution) of 30%.

In the case of `Cc1c(-c2cc3cc(NC(=O)O[C@@H]4COC[C@@H]4F)ncc3c(N)c2F)cnc2c1NCCO2` (single isomer, unassigned) [Compound 477d], the Ki ([1]; HPK1 Ki) is reported as 0.02 nM, the “% IL-2 increase relative to untreated cells” value ([2]; assayed concentration 8.33 μM) is reported as 1745% and the IC50 [3, 7] is reported as 66 nM. For the same compound, the Papp at 2 h, 10 μM [4] was 16 ×10⁻⁶ cm/s, the CLhep predicted at 1 μM [5] was 5.7 mL/min/kg and the bioavailability [6, 8] was 43%.

With `Cc1c(-c2cc3cc(NC(=O)O[C@@H]4CCC[C@H]4C#N)ncc3c(N)c2F)cnc2c1NCCO2` (single isomer, unassigned) [Compound 482a] the Ki ([1]; read-out: HPK1 Ki) was less than 0.013 nM, the “% IL-2 increase relative to untreated cells” value ([2]; assayed concentration 2.778 μM) was 737% and the IC50 [3, 7] was 38 nM. It also gave a Papp at 2 h, 10 μM [4] of 15 ×10⁻⁶ cm/s, a CLhep predicted at 1 μM [5] of 11 mL/min/kg and a bioavailability ([6]; PO 5 mg/kg, MCT, pH = 2.5, Suspension) of 41%.

For `Cc1c(-c2cc3cc(NC(=O)O[C@H]4CCO[C@H]4C)ncc3c(N)c2F)cnc2c1NCCO2` (single isomer, unassigned) [Compound 510c], the Ki ([1]; read-out: HPK1 Ki) was less than 0.013 nM, the “% IL-2 increase relative to untreated cells” value ([2]; assayed concentration 2.778 μM) was 700% and the IC50 ([3]; Jurkat) was 62 nM. For the same compound, the Papp at 2 h, 10 μM [4] was 20 ×10⁻⁶ cm/s, the CLhep predicted at 1 μM [5] was 8.7 mL/min/kg and the bioavailability ([6]; PO 2 mg/kg, MCT, Suspension) was 28%.

For `CO[C@H]1COC[C@@H]1OC(=O)Nc1cc2cc(-c3cnc4c(c3C)NCCO4)c(F)c(N)c2cn1` (single isomer, unassigned) [Compound 546a], the Ki ([1]; read-out: HPK1 Ki) was less than 0.013 nM, the “% IL-2 increase relative to untreated cells” value ([2]; assayed concentration 8.33 μM) was 914% and the IC50 [3, 7] was 62 nM. The Papp at 2 h, 10 μM [4] was 10 ×10⁻⁶ cm/s, the CLhep predicted at 1 μM [5] was 6.5 mL/min/kg and the bioavailability ([6]; PO 5 mg/kg, 10% DMSO/35% PEG400/55% Water, Solution) was 22%.

Compound `Cc1c(-c2cc3cc(NC(=O)OC4CCOCC4)ncc3c(N)c2F)cnc2c1NCCO2` [Compound 401, Tetrahydropyran-4-yl N-[8-amino-7-fluoro-6-(8-methyl-2,3-dihydro-1H-pyrido[2,3-b][1,4]oxazin-7-yl)-3-isoquinolyl]carbamate] has a Ki ([1]; read-out: HPK1 Ki) of 0.019 nM, an IC50 ([3]; Jurkat) of 97 nM and a Papp at 2 h, 10 μM [4] of 18 ×10⁻⁶ cm/s. For the same compound, the CLhep predicted at 1 μM [5] was 9.2 mL/min/kg and the bioavailability ([6]; PO 5 mg/kg, MCT, Suspension) was 16%.

For `Cc1c(-c2cc3cc(NC(=O)O[C@@H]4CCOC4)ncc3c(N)c2F)cnc2c1NCCO2` [Compound 403a, (R)-Tetrahydrofuran-3-yl (8-amino-7-fluoro-6-(8-methyl-2,3-dihydro-1H-pyrido[2,3-b][1,4]oxazin-7-yl)isoquinolin-3-yl)carbamate], the Ki ([1]; HPK1 Ki) was less than 0.013 nM, the IC50 [3, 7] was 48 nM and the Papp at 2 h, 10 μM [4] was 10 ×10⁻⁶ cm/s. For the same compound, the CLhep predicted at 1 μM [5] was 7.7 mL/min/kg and the bioavailability ([6]; PO 5 mg/kg, 10/90 DMSO/MCT, Suspension) was 4%.

With `Cc1c(-c2cc3cc(NC(=O)O[C@H]4C[C@H](C#N)C4)ncc3c(N)c2F)cnc2c1NCCO2` [Compound 484b, (1r,3r)-(3-Cyanocyclobutyl) N-[8-amino-7-fluoro-6-(8-methyl-2,3-dihydro-1H-pyrido[2,3-b][1,4]oxazin-7-yl)-3-isoquinolyl]carbamate] the Ki ([1]; read-out: HPK1 Ki) was 0.015 nM, the “% IL-2 increase relative to untreated cells” value ([2]; assayed concentration 2.778 μM) was 1782% and the IC50 [3, 7] was 26 nM. The Papp at 2 h, 10 μM [4] was 19 ×10⁻⁶ cm/s, the CLhep predicted at 1 μM [5] was 7.9 mL/min/kg and the bioavailability ([6]; PO 5 mg/kg, 10% DMSO/60% PEG400/30% Water, Solution) was 16%.

In the case of `CNc1cncc(-c2cc3cc(NC(=O)OC4CC(C)(O)C4)ncc3c(N)c2F)c1C` (stereo not drawn) [Compound 527, 3-Hydroxy-3-methylcyclobutyl(8-amino-7-fluoro-6-(4-methyl-5-(methylamino)pyridin-3-yl)isoquinolin-3-yl)carbamate], the “% IL-2 increase relative to untreated cells” value ([2]; assayed concentration 2.778 μM) is reported as 738%, the IC50 ([3]; Jurkat) is reported as 64 nM and the Papp at 2 h, 10 μM [4] is reported as 13 ×10⁻⁶ cm/s. For the same compound, the CLhep predicted at 1 μM [5] was 11 mL/min/kg and the bioavailability ([6]; PO 2 mg/kg, MCT, Suspension) was 12%.

For `Cc1c(-c2cc3cc(NC(=O)N4CC(C)C4)ncc3c(N)c2F)cnc2c1NCCO2` [Compound 751, N-(8-Amino-7-fluoro-6-(8-methyl-2,3-dihydro-1H-pyrido[2,3-b][1,4]oxazin-7-yl)isoquinolin-3-yl)-3-methylazetidine-1-carboxamide], the Ki ([1]; read-out: HPK1 Ki) was 0.044 nM, the “% IL-2 increase relative to untreated cells” value ([2]; assayed concentration 2.778 μM) was 1363% and the IC50 [3, 7] was 41 nM. For the same compound, the Papp at 2 h, 10 μM [4] was 11 ×10⁻⁶ cm/s, the CLhep predicted at 1 μM [5] was less than 6.2 mL/min/kg and the bioavailability [6, 8] was 9.4%.
